Data from paper PMC10112504, “Novel 4-thiophenyl-pyrazole, pyridine, and pyrimidine derivatives as potential antitumor candidates targeting both EGFR and VEGFR-2; design, synthesis, biological evaluations, and in silico studies” (RSC Advances, 2023).
Read-outs that look alike come from different tables or passages of the source.

Legend:
C. albicans = test: Antifungal activity, inhibition zone approach; format: cell-based, Candida albicans; details: for C. albicans Diameter of inhibition zone (mm): Fungi; for C. albicans % Activity index: ketoconazole = 100; for antimicrobial activity with C. albicans, in words: authors' grading of Table 2 values, key not given
P. aeuroginosa = test: Antibacterial activity, inhibition zone approach; format: cell-based, Pseudomonas aeuroginosa; details: for P. aeuroginosa Diameter of inhibition zone (mm): Gram-negative bacteria; for P. aeuroginosa % Activity index: gentamicin = 100; for antimicrobial activity with P. aeuroginosa, in words: authors' grading of Table 2 values, key not given
S. aureus = test: Antibacterial activity, inhibition zone approach; format: cell-based, Staphylococcus aureus; details: for S. aureus Diameter of inhibition zone (mm): Gram-positive bacteria; for S. aureus % Activity index: gentamicin = 100; for antimicrobial activity with S. aureus, in words: authors' grading of Table 2 values, key not given
B. subtilis = test: Antibacterial activity, inhibition zone approach; format: cell-based, Bacillus subtilis; details: for B. subtilis Diameter of inhibition zone (mm): Gram-positive bacteria; for B. subtilis % Activity index: gentamicin = 100; for antimicrobial activity with B. subtilis, in words: authors' grading of Table 2 values, key not given
MCF-7 = test: Anti-proliferative activity, SRB colorimetric assay; format: cell-based; details: for IC50: Homo sapiens, MCF7, MCF-7 cancer cell line, SRB assay, read-out: Cell lines (IC50 μM) MCF-7; for anti-proliferative activity against MCF-7, in words: authors' grading of Table 1 values, key not given
A. flavus = test: Antifungal activity, inhibition zone approach; format: cell-based, Aspergillus flavus; details: for A. flavus Diameter of inhibition zone (mm): Fungi; for A. flavus % Activity index: ketoconazole = 100; for antimicrobial activity with A. flavus, in words: authors' grading of Table 2 values, key not given
HepG-2 = test: Anti-proliferative activity, SRB colorimetric assay; format: cell-based; details: for IC50: HepG-2 cancer cell line, SRB assay, read-out: Cell lines (IC50 μM) HepG-2; for anti-proliferative activity against HepG-2, in words: authors' grading of Table 1 values, key not given
E. coli = test: Antibacterial activity, inhibition zone approach; format: cell-based, Escherichia coli; details: for E. coli Diameter of inhibition zone (mm): Gram-negative bacteria; for E. coli % Activity index: gentamicin = 100; for antimicrobial activity with E. coli, in words: authors' grading of Table 2 values, key not given

Row | Structure (SMILES) | melting point | C. albicans Diameter of inhibition zone (mm) (C. albicans) | C. albicans % Activity index (C. albicans) | P. aeuroginosa Diameter of inhibition zone (mm) (P. aeuroginosa) | P. aeuroginosa % Activity index (P. aeuroginosa) | S. aureus Diameter of inhibition zone (mm) (S. aureus) | S. aureus % Activity index (S. aureus) | B. subtilis Diameter of inhibition zone (mm) (B. subtilis) | B. subtilis % Activity index (B. subtilis) | IC50 (MCF-7) | A. flavus Diameter of inhibition zone (mm) (A. flavus) | A. flavus % Activity index (A. flavus) | IC50 (HepG-2; Homo sapiens, HepG2) | E. coli Diameter of inhibition zone (mm) (E. coli) | antimicrobial activity with C. albicans, in words (C. albicans) | antimicrobial activity with E. coli, in words (E. coli) | antimicrobial activity with P. aeuroginosa, in words (P. aeuroginosa) | antimicrobial activity with S. aureus, in words (S. aureus) | antimicrobial activity with B. subtilis, in words (B. subtilis) | antimicrobial activity with A. flavus, in words (A. flavus) | also measured
1 | CC(=O)N1N=C(c2ccc(Cl)c(Cl)c2)CC1c1cccs1 (centres unmarked) [8b, 1-(3-(3,4-dichlorophenyl)-5-(thiophen-2-yl)-4,5-dihydro-1H-pyrazol-1-yl)ethan-1-one] | 160 °C | 9 mm | 32.1% | 4 mm | 21.0% | 3 mm | 16.7% | 7 mm | 31.8% | 72.6 ± 3.9 µM | 5 mm | 19.2% | 74.3 ± 3.5 µM | – | – | – | – | – | – | – | –
2 | CC(=O)c1c(-c2cccs2)cc(-c2ccc(O)cc2)[nH]c1=O [3a, 3-Acetyl-6-(4-hydroxyphenyl)-4-(thiophen-2-yl)pyridin-2(1H)-one] | 220 °C | 11 mm | 39.3% | 6 mm | 31.6% | 5 mm | 27.8% | 9 mm | 40.9% | 48.4 ± 2.7 µM | 10 mm | 38.5% | 53.2 ± 3.1 µM | 4 mm | – | – | – | – | – | – | E. coli % Activity index (E. coli): 19.0%; anti-proliferative activity against MCF-7, in words (MCF-7): moderate; anti-proliferative activity against HepG-2, in words (HepG-2): moderate
3 | Oc1ccc(-c2cc(-c3cccs3)n(-c3nc4nc5ccccc5nc4s3)n2)cc1 [12a, 4-(1-(thiazolo[4,5-b]quinoxalin-2-yl)-5-(thiophen-2-yl)-1H-pyrazol-3-yl)phenol] | 250 to 252 °C | 6 mm | 21.4% | 3 mm | 15.8% | – | – | 5 mm | 22.7% | 65 ± 3.6 µM | – | – | 74.7 ± 3.9 µM | – | – | – | – | – | – | – | –
4 | CCOC(=O)CSC(=S)N1N=C(c2ccc(O)cc2)CC1c1cccs1 (centres unmarked) [17a, Ethyl 2-((3-(4-hydroxyphenyl)-5-(thiophen-2-yl)-4,5-dihydro-1H-pyrazole-1-carbonothioyl)thio)acetate] | 200 °C | 10 mm | 35.7% | 9 mm | 47.4% | 6 mm | 33.3% | 11 mm | 50.0% | 36.9 ± 2.2 µM | 8 mm | 30.8% | 62.4 ± 3.3 µM | 7 mm | weak | weak | weak | weak | weak | weak | E. coli % Activity index (E. coli): 33.3%; anti-proliferative activity against MCF-7, in words (MCF-7): moderate; anti-proliferative activity against HepG-2, in words (HepG-2): weak
5 | CC(=O)N1CCN(c2ccc(OCC3COC(Cn4ccnc4)(c4ccc(Cl)cc4Cl)O3)cc2)CC1 (centres unmarked) [Ketoconazole, reference compound] | – | 28 mm | 100% | – | – | – | – | – | – | – | 26 mm | 100% | – | – | – | – | – | – | – | – | –
6 | O=C(CCl)SC(=S)N1N=C(c2ccc(O)cc2)CC1c1cccs1 (centres unmarked) [20a, 2-Chloroacetic-3-(4-hydroxyphenyl)-5-(thiophen-2-yl)-4,5-dihydro-1H-pyrazole-1-carbothioic thioanhydride] | 265 °C | 9 mm | 32.1% | 4 mm | 21.0% | 3 mm | 16.7% | 6 mm | 27.3% | 56.2 ± 3.3 µM | 7 mm | 26.9% | 67.4 ± 3.5 µM | – | weak | weak | weak | weak | weak | weak | anti-proliferative activity against MCF-7, in words (MCF-7): weak; anti-proliferative activity against HepG-2, in words (HepG-2): weak
7 | NS(=O)(=O)c1ccc(NC(=O)CN2N=C(c3ccc(O)cc3)CC2c2cccs2)cc1 (centres unmarked) [16a, 2-(3-(4-hydroxyphenyl)-5-(thiophen-2-yl)-4,5-dihydro-1H-pyrazol-1-yl)-N-(4-sulfamoylphenyl)acetamide] | 158 to 160 °C | 15 mm | 53.6% | 11 mm | 57.9% | 8 mm | 44.4% | 11 mm | 50.0% | 29.1 ± 2 µM | 12 mm | 46.1% | 34.5 ± 2.2 µM | 7 mm | moderate | weak | moderate | moderate | moderate | moderate | E. coli % Activity index (E. coli): 33.3%; anti-proliferative activity against MCF-7, in words (MCF-7): moderate; anti-proliferative activity against HepG-2, in words (HepG-2): moderate
8 | Nc1nc(-c2ccc(O)cc2)cc(-c2cccs2)n1 [11a, 4-(2-amino-6-(thiophen-2-yl)pyrimidin-4-yl)phenol] | – | 11 mm | – | 11 mm | – | 7 mm | – | 10 mm | – | 61.1 ± 3.4 µM | 7 mm | – | 52.9 ± 2.9 µM | 6 mm | moderate | very strong | moderate | moderate | moderate | weak | –
9 | N#Cc1c(-c2cccs2)cc(-c2ccc(Cl)c(Cl)c2)nc1N [2b, 2-Amino-6-(3,4-dichlorophenyl)-4-(thiophen-2-yl)nicotinonitrile] | – | 17 mm | – | 11 mm | – | 9 mm | – | 14 mm | – | 55.5 ± 3.2 µM | 10 mm | – | 59.5 ± 3.1 µM | 8 mm | strong | moderate | strong | moderate | strong | moderate | –
10 | O=C(/C=C/c1cccs1)c1ccc(Cl)c(Cl)c1 [1b, (E)-1-(3,4-dichlorophenyl)-3-(thiophen-2-yl)prop-2-en-1-one] | 85 °C | – | – | – | – | – | – | – | – | > 100 µM | – | – | 84.2 ± 4.2 µM | – | – | – | – | – | – | – | –
11 | Clc1ccc(C2=NN(c3ccccc3)C(c3cccs3)C2)cc1Cl (centres unmarked) [9b, 3-(3,4-dichlorophenyl)-1-phenyl-5-(thiophen-2-yl)-4,5-dihydro-1H-pyrazole] | 130 °C | 8 mm | 28.6% | – | – | – | – | 6 mm | 27.3% | 67.3 ± 3.7 µM | 3 mm | 11.5% | 48.1 ± 2.7 µM | – | – | – | – | – | – | – | –
12 | Oc1ccc(C2=NN(C(=S)Nc3ccccc3)C(c3cccs3)C2)cc1 (centres unmarked) [14a, 3-(4-hydroxyphenyl)-N-phenyl-5-(thiophen-2-yl)-4,5-dihydro-1H-pyrazole-1-carbothioamide] | 245 to 247 °C | – | – | – | – | – | – | – | – | – | – | – | – | – | – | – | – | – | – | – | –
13 | O=C(/C=C/c1cccs1)c1ccc(O)cc1 [1a, (E)-1-(4-hydroxyphenyl)-3-(thiophen-2-yl)prop-2-en-1-one] | – | 3 mm | 10.7% | – | – | – | – | – | – | 82.5 ± 4.2 µM | – | – | 87.6 ± 4.2 µM | – | – | – | – | – | – | – | –
14 | COc1cccc2c1C(=O)c1c(O)c3c(c(O)c1C2=O)C[C@@](O)(C(=O)CO)C[C@@H]3O[C@H]1C[C@H](N)[C@H](O)[C@H](C)O1 [DOX, reference compound] | – | – | – | – | – | – | – | – | – | – | – | – | – | – | – | – | – | – | – | – | IC50 (HepG-2): 4.5 ± 0.2 µM
15 | CNC(C)C1CCC(N)C(OC2C(N)CC(N)C(OC3OCC(C)(O)C(NC)C3O)C2O)O1 (centres unmarked) [Gentamicin, reference compound] | – | – | – | 19 mm | 100% | 18 mm | 100% | 22 mm | 100% | – | – | – | – | 21 mm | – | – | – | – | – | – | E. coli % Activity index (E. coli): 100%
